# According to patent US12329747B2, “Use of lipophilic beta-lactam antibiotics and carboxylate esters for the treatment of bacterial infections within citrus and other plant species” (priority 2019, dated 2025):
# Structures can show the parent of a compound that is named as a salt.
# Tests used:
# HLB = conditions: cited from earlier work; for effect on HLB infected trees: spraying or common treatment, background statement
# citrus leaves = conditions: external application, background statement; cited from earlier work
# [1] = tested on: Murcott mandarin clippings; experiment: Foliar application to citrus clippings, negative ESI mass spectrum of reservoir water after 24 hours; conditions: 25 μmoles in 1:1 neem oil, 24 hour incubation; for penicillin G/V or metabolite peaks detected in reservoir water: negative ESI mass spectrum
# Candidatus Liberibacter = conditions: background statement, cited from earlier work; for effectiveness against the pathogenic bacteria: grafting method
# [2] = tested on: fire blight (Erwinia amylovera); conditions: background statement; cited from earlier work
Molecule,hydrolysis of the ester into the active antibiotic by citrus tissue [1],penetration of waxy cuticle layer and epidermis to access the phloem [1],penicillin G/V or metabolite peaks detected in reservoir water [1],also measured
[Cu] [Copper],–,–,–,effect on HLB infected trees (HLB): not been found to be effective
CC[C@H]1CCC[C@H](O[C@H]2CC[C@H](N(C)C)[C@@H](C)O2)[C@@H](C)C(=O)C2=C[C@@H]3[C@@H](C=C[C@@H]4C[C@@H](O[C@@H]5O[C@@H](C)[C@H](OC)[C@@H](OC)[C@H]5OC)C[C@@H]34)[C@@H]2CC(=O)O1 [Spinosyn A],–,–,–,penetration of citrus leaves or stems (citrus leaves): known to readily penetrate citrus leaves
"CCCCCCCCCC(=O)OCOC(=O)[C@@H]1N2C(=O)[C@@H](NC(=O)COc3ccccc3)[C@H]2SC1(C)C [product compound 6, (Decanoyloxy)methyl(2S,5R,6R)-3,3-dimethyl-7-oxo-6-(2-phenoxyacetamido)-4-thia-1-azabicyclo[3.2.0]heptane-2-carboxylate]",hydrolyzed into the active antibiotic,affectively penetrate through the waxy cuticle layer and through the epidermis to access the phloem,base peaks in the mass spectrum corresponded to the active antibiotics,–
"COC(=O)[C@@H]1N2C(=O)[C@@H](NC(=O)Cc3ccccc3)[C@H]2SC1(C)C [product compound 1, Methyl(2S,5R,6R)-3,3-dimethyl-7-oxo-6-(2-phenylacetamido)-4-thia-1-azabicyclo[3.2.0]heptane-2-carboxylate]",not being successfully metabolized to the active antibiotic,affectively penetrate through the waxy cuticle layer and through the epidermis to access the phloem,–,–
benzylpenicillin (penicillin G),–,–,–,"effect on tree health (HLB; direct injected into infected citrus trees, alone or in combinations with other antibiotics): marked improvement; penetration of citrus leaves or stems (citrus leaves): do not easily penetrate the waxy cuticle covering; phytotoxicity (Candidatus Liberibacter): very little phytotoxicity; effectiveness against the pathogenic bacteria (Candidatus Liberibacter): extremely effective"
[H]/N=C(/N)N[C@H]1[C@H](O)[C@@H](O)[C@H](O[C@@H]2O[C@@H](C)[C@](O)(C=O)[C@H]2O[C@@H]2O[C@@H](CO)[C@H](O)[C@@H](O)[C@@H]2NC)[C@@H](N/C(N)=N\[H])[C@@H]1O [streptomycin sulfate],–,–,–,effect on HLB infected trees (HLB): only marginally improved the health of trees; bactericidal or bacteriostatic action [2]: bactericidal
phenoxymethylpenicillin (penicillin V),–,–,–,penetration of citrus leaves or stems (citrus leaves): do not easily penetrate the waxy cuticle covering; phytotoxicity (Candidatus Liberibacter): very little phytotoxicity; effectiveness against the pathogenic bacteria (Candidatus Liberibacter): extremely effective
"CC(C)(C)C(=O)OCOC(=O)[C@@H]1N2C(=O)[C@@H](NC(=O)COc3ccccc3)[C@H]2SC1(C)C [product compound 8, (Pivaloyloxy)methyl (2S,5R,6R)-3,3-dimethyl-7-oxo-6-(2-phenoxyacetamido)-4-thia-1-azabicyclo[3.2.0]heptane-2-carboxylate]",hydrolyzed into the active antibiotic,affectively penetrate through the waxy cuticle layer and through the epidermis to access the phloem,base peaks in the mass spectrum corresponded to the active antibiotics,–
"CC1(C)S[C@@H]2[C@H](NC(=O)Cc3ccccc3)C(=O)N2[C@H]1C(=O)OCc1ccccc1 [product compound 3, Benzyl(2S,5R,6R)-3,3-dimethyl-7-oxo-6-(2-phenylacetamido)-4-thia-1-azabicyclo[3.2.0]heptane-2-carboxylate]",–,substantially reduce permeability,no recognizable metabolite peaks were detected,–
"COC(=O)[C@@H]1N2C(=O)[C@@H](NC(=O)COc3ccccc3)[C@H]2SC1(C)C [product compound 2, Methyl(2S,5R,6R)-3,3-dimethyl-7-oxo-6-(2-phenoxyacetamido)-4-thia-1-azabicyclo[3.2.0]heptane-2-carboxylate]",not being successfully metabolized to the active antibiotic,affectively penetrate through the waxy cuticle layer and through the epidermis to access the phloem,–,–
"CC(C)(C)C(=O)OCOC(=O)[C@@H]1N2C(=O)[C@@H](NC(=O)Cc3ccccc3)[C@H]2SC1(C)C [product compound 7, (Pivaloyloxy)methyl (2S,5R,6R)-3,3-dimethyl-7-oxo-6-(2-phenylacetamido)-4-thia-1-azabicyclo[3.2.0]heptane-2-carboxylate]",hydrolyzed into the active antibiotic,affectively penetrate through the waxy cuticle layer and through the epidermis to access the phloem,base peaks in the mass spectrum corresponded to the active antibiotics,–
"CCCCCCCCCC(=O)OCOC(=O)[C@@H]1N2C(=O)[C@@H](NC(=O)Cc3ccccc3)[C@H]2SC1(C)C [product compound 5, (Decanoyloxy)methyl (2S,5R,6R)-3,3-dimethyl-7-oxo-6-(2-phenylacetamido)-4-thia-1-azabicyclo[3.2.0]heptane-2-carboxylate]",hydrolyzed into the active antibiotic,affectively penetrate through the waxy cuticle layer and through the epidermis to access the phloem,base peaks in the mass spectrum corresponded to the active antibiotics,–
"CC1(C)S[C@@H]2[C@H](NC(=O)COc3ccccc3)C(=O)N2[C@H]1C(=O)OCc1ccccc1 [product compound 4, Benzyl(2S,5R,6R)-3,3-dimethyl-7-oxo-6-(2-phenoxyacetamido)-4-thia-1-azabicyclo[3.2.0]heptane-2-carboxylate]",–,substantially reduce permeability,no recognizable metabolite peaks were detected,–
